# Data as given in patent US11339171B2, “MDM2 inhibitors” (Gan & Lee Pharmaceuticals, priority 2017, dated 2022).
# “And” between values parts separate entries of the source, which are not always exact repeats. Equal entries are not always repeated. Where two headings read alike, the source gives them in different places.
# Assays:
# MDM2 = target: T1, MDM2 (Homo sapiens, UniProt Q00987); experiment: Inhibition test of MDM2-P53 (GST-MDM2, Biotin-P53, Anti-GST-Tb, SA-XL665); assay type: binding
# T1 construct: made in house
# Procedure, shortened: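 Compounds, serially diluted 5-fold (twelve concentrations), were shaken for 90 min at 25° C with a mix of GST-MDM2 (4 nM final), Biotin-P53, anti-GST-Tb and SA-XL665. Buffer: 1×PBS, 0.1% BSA, 5 mM DTT, 1 mM AEBSF; signal read on a microplate reader.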
# [1] = system: human osteosarcoma cell line SJSA-1; experiment: Inhibition of proliferation of human osteosarcoma cell line SJSA-1 (DAPI staining, In Cell Analyzer); settings: Homo sapiens, SJSA-1, 72 h, read-out: IC50 (nM), inhibitory activity on proliferation of human osteosarcoma cell line SJSA-1, SJSA-1, incubated 72 h
# [2] = Pharmacokinetics in ICR mice after intravenous and intragastric administration; assay type: in vivo; settings: for F*: PO 5 mg/kg vs IV 2 mg/kg, mean; for MRT last: read-out: MRT(0-t); for MRT inf: read-out: MRT(0-∞); for Vd: read-out: Vz
# Procedure, shortened: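 Single-dose mouse PK study: i.v. 2 mg/kg and intragastric 5 mg/kg to fasted male ICR mice, three animals per arm. Exposure and disposition parameters (Cmax, Tmax, AUC, t1/2, F, CL, Vz) came from LC-MS/MS plasma levels.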
# [3] = ICR mice, IV 2 mg/kg, individual animals 301-303, 2 mg/kg
# [4] = ICR mice, PO 5 mg/kg, individual animals 401-403, 5 mg/kg
# [5] = male, ICR, mouse, plasma, iv, 2 mg/kg, ICR mice, IV 2 mg/kg, individual animals 301-303
# [6] = male, ICR, mouse, plasma, iv, 2 mg/kg, ICR mice, IV 2 mg/kg, individual animals 301-303, read-out: AUC(0-t)
# [7] = male, ICR, mouse, plasma, iv, 2 mg/kg, ICR mice, IV 2 mg/kg, individual animals 301-303, read-out: Cmax
# [8] = male, ICR, mouse, plasma, iv, 2 mg/kg, ICR mice, IV 2 mg/kg, individual animals 301-303, read-out: Tmax
# [9] = male, ICR, mouse, plasma, iv, 2 mg/kg, ICR mice, IV 2 mg/kg, individual animals 301-303, read-out: t1/2 (converted)
# [10] = male, ICR, mouse, plasma, iv, 2 mg/kg, ICR mice, IV 2 mg/kg, mean of 3 animals
# [11] = male, ICR, mouse, plasma, iv, 2 mg/kg, ICR mice, IV 2 mg/kg, mean of 3 animals, read-out: AUC(0-t)
# [12] = male, ICR, mouse, plasma, iv, 2 mg/kg, ICR mice, IV 2 mg/kg, mean of 3 animals, read-out: Cmax
# [13] = male, ICR, mouse, plasma, iv, 2 mg/kg, ICR mice, IV 2 mg/kg, mean of 3 animals, read-out: Tmax
# [14] = male, ICR, mouse, plasma, iv, 2 mg/kg, ICR mice, IV 2 mg/kg, mean of 3 animals, read-out: t1/2 (converted)
# [15] = male, ICR, mouse, plasma, po, 5 mg/kg, ICR mice, PO 5 mg/kg, individual animals 401-403
# [16] = male, ICR, mouse, plasma, po, 5 mg/kg, ICR mice, PO 5 mg/kg, individual animals 401-403, read-out: AUC(0-t)
# [17] = male, ICR, mouse, plasma, po, 5 mg/kg, ICR mice, PO 5 mg/kg, individual animals 401-403, read-out: Cmax
# [18] = male, ICR, mouse, plasma, po, 5 mg/kg, ICR mice, PO 5 mg/kg, individual animals 401-403, read-out: t1/2 (converted)
# [19] = male, ICR, mouse, plasma, po, 5 mg/kg, ICR mice, PO 5 mg/kg, mean of 3 animals
# [20] = male, ICR, mouse, plasma, po, 5 mg/kg, ICR mice, PO 5 mg/kg, mean of 3 animals, read-out: AUC(0-t)
# [21] = male, ICR, mouse, plasma, po, 5 mg/kg, ICR mice, PO 5 mg/kg, mean of 3 animals, read-out: Cmax
# [22] = male, ICR, mouse, plasma, po, 5 mg/kg, ICR mice, PO 5 mg/kg, mean of 3 animals, read-out: Tmax
# [23] = male, ICR, mouse, plasma, po, 5 mg/kg, ICR mice, PO 5 mg/kg, mean of 3 animals, read-out: t1/2 (converted)
# [24] = male, ICR, mouse, plasma, po, 5 mg/kg, oral intragastric administration 5 mg/kg, read-out: AUC0-t
# [25] = male, ICR, mouse, plasma, po, 5 mg/kg, oral intragastric administration 5 mg/kg, read-out: half-life (converted)
# T1 sequence (Q00987 whole entry): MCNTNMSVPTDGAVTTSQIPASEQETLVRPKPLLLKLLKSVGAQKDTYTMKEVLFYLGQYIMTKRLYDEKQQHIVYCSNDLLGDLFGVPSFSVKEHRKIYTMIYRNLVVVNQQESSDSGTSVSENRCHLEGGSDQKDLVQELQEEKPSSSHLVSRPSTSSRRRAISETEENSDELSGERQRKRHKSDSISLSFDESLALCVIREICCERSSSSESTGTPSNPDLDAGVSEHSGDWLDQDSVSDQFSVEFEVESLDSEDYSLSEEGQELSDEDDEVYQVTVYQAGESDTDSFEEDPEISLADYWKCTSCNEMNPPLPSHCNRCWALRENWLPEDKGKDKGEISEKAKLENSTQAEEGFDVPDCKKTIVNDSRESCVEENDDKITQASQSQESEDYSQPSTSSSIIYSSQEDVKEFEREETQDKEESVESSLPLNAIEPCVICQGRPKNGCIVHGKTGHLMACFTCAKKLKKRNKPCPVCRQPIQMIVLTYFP
smiles,measurement,setting,value
"COc1cc(OC(C)C)ncc1-c1nc2c(n1C(C)C)[C@@]1(C(=O)Nc3cc(Cl)ccc31)N(c1cc(Cl)cnc1C)C2=O [Example S-137, (S)-6-chloro-5′-(5-chloro-2-methylpyridin-3-yl)-2′-(6-isopropoxy-4-methoxypyridin-3-yl)-3′-isopropyl-3′H-spiro[dihydroindole-3,4′-pyrrolo[3,4-d]imidazole]-2,6′(5′H)-dione]",IC50,MDM2,1.65 nM
same,IC50,[1],65.9 nM
same,AUC(0-t),[2]; [3],15555.08 ng·h/mL and 10168.14 ng·h/mL
same,AUC(0-∞),[2]; [3],15581.80 ng·h/mL and 10938.18 ng·h/mL
same,CL,[2]; [3],2.14 mL/min/kg and 3.05 mL/min/kg
same,Cmax,[2]; [3],5945.51 ng/mL and 5653.28 ng/mL
same,MRT(0-t),[2]; [3],2.84 h and 1.50 h
same,MRT(0-∞),[2]; [3],2.88 h and 1.97 h
same,Vz,[2]; [3],0.52 L/kg and 0.41 L/kg
same,t1/2,[2]; [3],2.79 h and 1.57 h
same,F*,[2]; ICR mice,53.35%
same,AUC(0-t),[2]; [4],16097.34 ng·h/mL and 14779.57 ng·h/mL
same,AUC(0-∞),[2]; [4],17159.38 ng·h/mL and 15367.65 ng·h/mL
same,Cmax,[2]; [4],5542.83 ng/mL and 6791.01 ng/mL
same,MRT(0-t),[2]; [4],2.31 h and 2.03 h
same,MRT(0-∞),[2]; [4],2.84 h and 2.35 h
same,t1/2,[2]; [4],1.98 h and 1.69 h
same,AUC(0-inf),[2]; [5],9740 ng·h/mL
same,clearance,[2]; [5],3.42 mL/min/kg
same,AUC(0-t),[2]; [6],8960 ng·h/mL
same,Cmax,[2]; [7],5260 ng/mL
same,MRT last,[2]; [5],1.51 h
same,MRT inf,[2]; [5],2.06 h
same,Tmax,[2]; [8],0.08 h
same,Vd,[2]; [5],0.5 L/kg
same,half-life,[2]; [9],1.68 h
same,AUC(0-inf),[2]; [10],12100 ng·h/mL
same,clearance,[2]; [10],2.87 mL/min/kg
same,AUC(0-t),[2]; [11],11600 ng·h/mL
same,Cmax,[2]; [12],5620 ng/mL
same,MRT last,[2]; [10],1.95 h
same,MRT inf,[2]; [10],2.3 h
same,Tmax,[2]; [13],0.083 h
same,Vd,[2]; [10],0.48 L/kg
same,half-life,[2]; [14],2.01 h
same,AUC(0-inf),[2]; [15],16200 ng·h/mL
same,AUC(0-t),[2]; [16],15400 ng·h/mL
same,Cmax,[2]; [17],5880 ng/mL
same,MRT last,[2]; [15],2.28 h
same,MRT inf,[2]; [15],2.7 h
same,Tmax,"[2]; male, ICR, mouse, plasma, po, 5 mg/kg, ICR mice, PO 5 mg/kg, individual animals 401-403, read-out: Tmax",0.5 h
same,half-life,[2]; [18],1.85 h
same,AUC(0-inf),[2]; [19],16200 ng·h/mL
same,AUC(0-t),[2]; [20],15400 ng·h/mL
same,Cmax,[2]; [21],6070 ng/mL
same,MRT last,[2]; [19],2.21 h
same,MRT inf,[2]; [19],2.63 h
same,Tmax,[2]; [22],0.5 h
same,half-life,[2]; [23],1.84 h
same,AUC(0-t),[2]; [24],15400 ng·h/mL
same,half-life,[2]; [25],1.84 h
"COc1cc(C(F)(F)F)ncc1-c1nc2c(n1C(C)C)[C@@]1(C(=O)Nc3cc(Cl)ccc31)N(c1cc(Cl)ccc1C)C2=O [Example S-138, (S)-6-chloro-5′-(5-chloro-2-methylphenyl)-3′-isopropyl-2′-(4-methoxy-6-(trifluoromethyl)pyridin-3-yl)-3′H-spiro[dihydroindole-3,4′-pyrrolo[3,4-d]imidazole]-2,6′(5′H)-dione]",IC50,MDM2,1.04 nM
same,IC50,[1],75.7 nM
same,AUC(0-t),[2]; [3],3427.99 ng·h/mL and 6387.52 ng·h/mL
same,AUC(0-∞),[2]; [3],5237.36 ng·h/mL and 6445.45 ng·h/mL
same,CL,[2]; [3],6.36 mL/min/kg and 5.17 mL/min/kg
same,Cmax,[2]; [3],2002.99 ng/mL and 1828.27 ng/mL
same,MRT(0-t),[2]; [3],4.04 h and 2.03 h and 4.19 h
same,MRT(0-∞),[2]; [3],5.54 h and 4.42 h
same,Vz,[2]; [3],2.37 L/kg and 1.70 L/kg
same,t1/2,[2]; [3],4.29 h and 3.81 h
same,F*,[2]; ICR mice,58.12%
same,AUC(0-t),[2]; [4],7494.57 ng·h/mL and 8147.05 ng·h/mL
same,AUC(0-∞),[2]; [4],8818.35 ng·h/mL and 9514.89 ng·h/mL
same,Cmax,[2]; [4],1475.55 ng/mL and 1466.48 ng/mL
same,MRT(0-t),[2]; [4],3.19 h and 3.27 h
same,MRT(0-∞),[2]; [4],4.51 h and 4.52 h
same,Tmax,[2]; [4],4.00 h and 2.00 h and 1.00 h
same,t1/2,[2]; [4],2.74 h
same,AUC(0-inf),[2]; [5],6130 ng·h/mL
same,clearance,[2]; [5],5.44 mL/min/kg
same,AUC(0-t),[2]; [6],6060 ng·h/mL
same,Cmax,[2]; [7],2170 ng/mL
same,MRT inf,[2]; [5],4.32 h
same,Tmax,[2]; [8],0.08 h
same,Vd,[2]; [5],1.9 L/kg
same,half-life,[2]; [9],4.03 h
same,AUC(0-inf),[2]; [10],5940 ng·h/mL
same,clearance,[2]; [10],5.66 mL/min/kg
same,AUC(0-t),[2]; [11],5290 ng·h/mL
same,Cmax,[2]; [12],2000 ng/mL
same,MRT last,[2]; [10],3.42 h
same,MRT inf,[2]; [10],4.76 h
same,Tmax,[2]; [13],0.083 h
same,Vd,[2]; [10],1.99 L/kg
same,half-life,[2]; [14],4.04 h
same,AUC(0-inf),[2]; [15],9150 ng·h/mL
same,AUC(0-t),[2]; [16],7430 ng·h/mL
same,Cmax,[2]; [17],1240 ng/mL
same,MRT last,[2]; [15],3.56 h
same,MRT inf,[2]; [15],5.12 h
same,half-life,[2]; [18],2.69 h
same,AUC(0-inf),[2]; [19],9160 ng·h/mL
same,AUC(0-t),[2]; [20],7690 ng·h/mL
same,Cmax,[2]; [21],1390 ng/mL
same,MRT last,[2]; [19],3.34 h
same,MRT inf,[2]; [19],4.72 h
same,Tmax,[2]; [22],2.33 h
same,half-life,[2]; [23],2.72 h
same,AUC(0-t),[2]; [24],7690 ng·h/mL
same,half-life,[2]; [25],2.72 h
